Publication PMC12775434, “Ultra-large virtual screening unveils potent agonists of the neuromodulatory orphan receptor GPR139” (Nature Communications, 2025)
“And” between values parts separate entries of the source, which are not always exact repeats. Identical values can stand only once.

Molecular target: T1, GPR139 (Homo sapiens, UniProt Q6DWJ6)
T1 sequence (Q6DWJ6 1-353): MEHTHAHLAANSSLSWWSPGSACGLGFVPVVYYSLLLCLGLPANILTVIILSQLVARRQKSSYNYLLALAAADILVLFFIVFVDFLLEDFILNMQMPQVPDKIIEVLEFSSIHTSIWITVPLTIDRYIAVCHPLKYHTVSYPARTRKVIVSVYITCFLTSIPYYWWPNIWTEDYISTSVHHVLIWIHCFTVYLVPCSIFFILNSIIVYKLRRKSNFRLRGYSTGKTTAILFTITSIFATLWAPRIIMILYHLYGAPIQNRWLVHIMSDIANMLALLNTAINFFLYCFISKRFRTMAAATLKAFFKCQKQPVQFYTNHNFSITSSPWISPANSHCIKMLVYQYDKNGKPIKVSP
Test: Inositol monophosphate (IP1) accumulation assay, GPR139-CHOk1
Format: cell-based
Details: for EC50 / Emax: Supplementary Table 2; for EC50: mean ± SEM, read-out: pEC50 IP1 (converted); for Emax: normalized to Lundbeck Cmp 1a, read-out: Emax (%) IP1; for IP1 response (% of Cmp 1a): individual replicates

Row | SMILES | EC50 [nM] | Emax [%] | IP1 response (% of Cmp 1a) (log [compound] M -4.5) | IP1 response (% of Cmp 1a) (log [compound] M -5.0) | IP1 response (% of Cmp 1a) (log [compound] M -5.5) | IP1 response (% of Cmp 1a) (log [compound] M -6.0) | IP1 response (% of Cmp 1a) (log [compound] M -6.5) | IP1 response (% of Cmp 1a) (log [compound] M -7.0) | IP1 response (% of Cmp 1a) (log [compound] M -7.5) | IP1 response (% of Cmp 1a) (log [compound] M -8.0)
1 | Cc1nocc1-c1nc(CC(=O)NC(C)c2ccccc2)no1 (centres unmarked) [Compound 1.5, CC(C1=CC=CC=C1)NC(CC2=NOC(C3=CON=C3C)=N2)=O] | 501 | 102 ± 15 | 120 % of Cmp 1a and 99 % of Cmp 1a and 50 % of Cmp 1a and 106 % of Cmp 1a | 127 % of Cmp 1a and 79 % of Cmp 1a and 71 % of Cmp 1a and 109 % of Cmp 1a | 103 % of Cmp 1a and 63 % of Cmp 1a and 65 % of Cmp 1a and 87 % of Cmp 1a | 75 % of Cmp 1a and 61 % of Cmp 1a and 56 % of Cmp 1a and 68 % of Cmp 1a | 59 % of Cmp 1a and 41 % of Cmp 1a and 29 % of Cmp 1a and 43 % of Cmp 1a | 26 % of Cmp 1a and 25 % of Cmp 1a and 8 % of Cmp 1a and 18 % of Cmp 1a | 22 % of Cmp 1a and 7 % of Cmp 1a and 0.699 % of Cmp 1a and 13 % of Cmp 1a | 12 % of Cmp 1a and -12 % of Cmp 1a and -8.56 % of Cmp 1a and 4.3 % of Cmp 1a
2 | COc1cc(-c2nc(CC(=O)NC(C)c3ccccc3)no2)ccn1 (centres unmarked) [Compound 1.7, COC1=NC=CC(C2=NC(CC(NC(C3=CC=CC=C3)C)=O)=NO2)=C1] | 1580 | 117 ± 14 | 142 % of Cmp 1a and 109 % of Cmp 1a and 76 % of Cmp 1a and 127 % of Cmp 1a | 138 % of Cmp 1a and 94 % of Cmp 1a and 74 % of Cmp 1a and 127 % of Cmp 1a | 84 % of Cmp 1a and 64 % of Cmp 1a and 60 % of Cmp 1a and 90 % of Cmp 1a | 57 % of Cmp 1a and 49 % of Cmp 1a and 36 % of Cmp 1a and 61 % of Cmp 1a | 27 % of Cmp 1a and 9 % of Cmp 1a and 14 % of Cmp 1a and 24 % of Cmp 1a | 16 % of Cmp 1a and 1.76 % of Cmp 1a and 0.565 % of Cmp 1a and 7 % of Cmp 1a | 8 % of Cmp 1a and -3 % of Cmp 1a and 0.446 % of Cmp 1a and 6 % of Cmp 1a | 7 % of Cmp 1a and -5.45 % of Cmp 1a and -4.55 % of Cmp 1a and 1 % of Cmp 1a
